Columns and labels:
Type in all cases: cell-based
[1] = target: T1, NK3 (Homo sapiens, UniProt P29371); assay: Signal transduction (ST), intracellular Ca++ FLIPR, NK3; details: antagonist response, Ca++ transient peak, read-out: NK3 pIC50 (converted)
T1 sequence (P29371 1-465): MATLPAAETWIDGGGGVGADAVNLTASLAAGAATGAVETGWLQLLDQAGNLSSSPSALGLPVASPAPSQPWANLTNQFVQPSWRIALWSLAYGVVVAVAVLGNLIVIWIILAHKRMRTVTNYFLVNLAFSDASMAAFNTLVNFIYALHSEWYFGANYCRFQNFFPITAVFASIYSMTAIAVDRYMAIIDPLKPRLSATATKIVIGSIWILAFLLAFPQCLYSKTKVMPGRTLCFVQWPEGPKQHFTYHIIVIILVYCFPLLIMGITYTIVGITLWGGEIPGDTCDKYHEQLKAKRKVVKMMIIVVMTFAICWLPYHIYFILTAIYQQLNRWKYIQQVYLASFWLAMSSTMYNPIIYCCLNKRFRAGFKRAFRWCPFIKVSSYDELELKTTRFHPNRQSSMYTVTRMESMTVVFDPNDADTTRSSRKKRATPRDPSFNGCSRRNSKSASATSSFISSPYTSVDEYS

[2] = target: T2, NK2 (Homo sapiens, UniProt P21452); assay: Signal transduction (ST), intracellular Ca++ FLIPR, NK2; details: antagonist response, Ca++ transient peak, read-out: NK2 pIC50 (converted)
T2 sequence (P21452 1-398): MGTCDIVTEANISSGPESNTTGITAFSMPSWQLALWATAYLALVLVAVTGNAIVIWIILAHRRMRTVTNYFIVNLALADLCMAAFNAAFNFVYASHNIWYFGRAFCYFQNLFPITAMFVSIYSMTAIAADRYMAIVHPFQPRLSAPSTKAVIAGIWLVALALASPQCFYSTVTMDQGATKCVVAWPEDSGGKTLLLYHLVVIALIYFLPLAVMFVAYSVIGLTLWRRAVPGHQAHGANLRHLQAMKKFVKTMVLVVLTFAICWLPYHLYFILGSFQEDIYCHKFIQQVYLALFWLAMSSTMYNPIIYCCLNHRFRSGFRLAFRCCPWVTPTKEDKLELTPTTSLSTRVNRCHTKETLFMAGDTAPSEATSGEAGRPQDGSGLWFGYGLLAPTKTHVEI

[3] = target: NK1 (Homo sapiens, UniProt P25103); assay: Signal transduction (ST), intracellular Ca++ FLIPR, NK1; details: antagonist response, Ca++ transient peak, read-out: NK1 pIC50 (converted)
Sequence of NK1 (P25103 whole entry): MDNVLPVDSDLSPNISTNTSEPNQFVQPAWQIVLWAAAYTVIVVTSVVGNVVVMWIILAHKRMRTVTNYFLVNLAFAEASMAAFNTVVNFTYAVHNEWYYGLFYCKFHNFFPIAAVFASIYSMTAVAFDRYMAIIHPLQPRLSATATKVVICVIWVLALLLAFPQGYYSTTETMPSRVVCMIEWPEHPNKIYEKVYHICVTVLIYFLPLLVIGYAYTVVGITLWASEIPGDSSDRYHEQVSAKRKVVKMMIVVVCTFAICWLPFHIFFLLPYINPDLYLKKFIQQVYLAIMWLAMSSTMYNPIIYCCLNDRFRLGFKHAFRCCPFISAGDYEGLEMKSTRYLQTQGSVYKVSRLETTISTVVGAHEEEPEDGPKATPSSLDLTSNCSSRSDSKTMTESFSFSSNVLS
Protocol: This test evaluates in vitro functional NK1 antagonistic activity. For the measurements of intracellular Ca^++ concentrations the cells were grown on 96-well (black wall/transparent bottom) plates from Costar for 2 days until they reached confluence. The cells were loaded with 2 μM Fluo3 in DMEM containing 0.1% BSA and 2.5 mM probenecid for 1 h at 37° C. They were washed 3× with a Krebs buffer (140 mM NaCl, 1 mM MgCl2×6H2O, 5 mM KCl, 10 mM glucose, 5 mM HEPES; 1.25 mM CaCl2; pH 7.4) containing 2.5 mM probenecid and 0.1% BSA (Ca^++-buffer). The cells were preincubated with a concentration range of antagonists for 20 min at RT and Ca^++-signals after addition of the agonists were measured in a Fluorescence Inage Plate Reader (FLIPR from Molecular Devices, Crawley, England). The peak of the Ca^++-transient was considered as the relevant signal and the mean values of corresponding wells were analysed as described below. The sigmoidal dose response curves were analysed by computerised curve-fitting, using the GraphPad Program. The EC50-value of a compound is the effective dose showing 50% of maximal effect. For mean curves the response to the agonist with the highest potency was normalised to 100%. For antagonist responses the IC50-value was calculated using non-linear regression. The last column indicates—without being limited thereto—for which use the compounds might be most suitable.

| IC50 [1] [µM] | IC50 [2] [µM] | IC50 [3] [µM] | Structure (SMILES) |
| --- | --- | --- | --- |
| > 10 | 3.16 | 0.1 | O=C(c1cc(C(F)(F)F)cc(C(F)(F)F)c1)N1CC[C@H](N2CCC3(CCCN3C(=O)c3ccoc3)C2)C[C@H]1Cc1ccccc1 (stereo partly drawn) [Compound 1-7] |
| > 10 | 3.98 | 0.2 | O=C(c1cc(C(F)(F)F)cc(C(F)(F)F)c1)N1CC[C@@H](N2CCC3(CCCN3C(=O)c3cnccn3)C2)C[C@H]1Cc1ccccc1 (stereo partly drawn) [Compound 1-12] |
|  | 6.31 | 0.0501 | O=C(c1cc(C(F)(F)F)cc(C(F)(F)F)c1)N1CCC(N2CCC3(CCCN3C(=O)C3CCOC3)C2)CC1Cc1ccccc1 (single isomer, unassigned) [Compound 1-5] |
| > 10 | 6.31 | 0.0501 | O=C(c1cc(C(F)(F)F)cc(C(F)(F)F)c1)N1CC[C@@H](N2CCC3(CCCN3C(=O)c3cccs3)C2)C[C@H]1Cc1ccccc1 (stereo partly drawn) [Compound 1-9] |
| 2 | 2.51 | 0.0398 | O=C(C1CCOC1)N1CCC2(CCN([C@H]3CCN(C(=O)c4cc(C(F)(F)F)cc(C(F)(F)F)c4)[C@H](Cc4ccccc4)C3)C2)C1 (stereo partly drawn) [Compound 2-5] |
| 3.98 | 5.01 | 0.126 | O=C(c1ccccc1)N1CCC2(CCN([C@H]3CCN(C(=O)c4cc(C(F)(F)F)cc(C(F)(F)F)c4)[C@H](Cc4ccccc4)C3)C2)C1 (stereo partly drawn) [Compound 2-9] |
| 3.98 | 6.31 | 0.1 | Cc1nnsc1C(=O)N1CCC2(CCN([C@H]3CCN(C(=O)c4cc(C(F)(F)F)cc(C(F)(F)F)c4)[C@H](Cc4ccccc4)C3)C2)C1 (stereo partly drawn) [Compound 2-8] |
| 2.51 | 6.31 | 0.158 | O=C(c1cccs1)N1CCC2(CCN([C@H]3CCN(C(=O)c4cc(C(F)(F)F)cc(C(F)(F)F)c4)[C@H](Cc4ccccc4)C3)C2)C1 (stereo partly drawn) [Compound 2-7] |
| > 10 | > 10 | 0.631 | O=C(c1cc(C(F)(F)F)cc(C(F)(F)F)c1)N1CCC(N2CCC3(CCCN3Cc3ccccc3)C2)CC1Cc1ccccc1 (stereo not drawn) [Compound 1-2] |
| > 10 |  | 0.158 | O=C(c1cc(C(F)(F)F)cc(C(F)(F)F)c1)N1CC[C@@H](N2CCC3(CCCN3C(=O)c3ccccc3)C2)C[C@H]1Cc1ccccc1 (stereo partly drawn) [Compound 1-11] |
|  | 2.51 | 0.1 | O=C(C1CC1)N1CCC2(CCN(C3CCN(C(=O)c4cc(C(F)(F)F)cc(C(F)(F)F)c4)C(Cc4ccccc4)C3)C2)C1 (stereo not drawn) [Compound 2-4] |
| 3.16 | 5.01 | 0.0501 | O=C(c1ccoc1)N1CCC2(CCN([C@H]3CCN(C(=O)c4cc(C(F)(F)F)cc(C(F)(F)F)c4)[C@H](Cc4ccccc4)C3)C2)C1 (stereo partly drawn) [Compound 2-6] |
| 6.31 | 3.16 | 0.0631 | CC(C)(C)C(=O)N1CCC2(CCN([C@H]3CCN(C(=O)c4cc(C(F)(F)F)cc(C(F)(F)F)c4)[C@H](Cc4ccccc4)C3)C2)C1 (stereo partly drawn) [Compound 2-3] |
| > 10 | 5.01 | 0.251 | O=C(c1cnccn1)N1CCC2(CCN([C@H]3CCN(C(=O)c4cc(C(F)(F)F)cc(C(F)(F)F)c4)[C@H](Cc4ccccc4)C3)C2)C1 (stereo partly drawn) [Compound 2-10] |
| > 10 | 6.31 | 0.1 | O=C(c1cc(C(F)(F)F)cc(C(F)(F)F)c1)N1CC[C@@H](N2CCC3(CCCN3C(=O)c3ccoc3)C2)C[C@H]1Cc1ccccc1 (stereo partly drawn) [Compound 1-8] |
| > 10 | 5.01 | 0.2 | O=C(c1cc(C(F)(F)F)cc(C(F)(F)F)c1)N1CC[C@H](N2CCC3(CCCN3C(=O)c3ccccc3)C2)C[C@H]1Cc1ccccc1 (stereo partly drawn) [Compound 1-10] |
| > 10 | 3.98 | 0.251 | O=C(c1cc(C(F)(F)F)cc(C(F)(F)F)c1)N1CCC(N2CCC3(CCCN3C(=O)C3CC3)C2)CC1Cc1ccccc1 (stereo not drawn) [Compound 1-3] |
| > 10 | 1.58 | 0.0631 | O=C(c1cc(C(F)(F)F)cc(C(F)(F)F)c1)N1CCC(N2CCC3(CCCN3C(=O)C3CCOC3)C2)CC1Cc1ccccc1 (single isomer, unassigned) [Compound 1-6] |
